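Interpolation was linear, between the two tested concentrations surrounding the appropriate level; five concentrations were tested over 48 hours in 96-well plates. Definition used: TGI = concentration required for complete inhibition of growth.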
Tests used:
Experiment in all cases: NCI anticancer screen, dose series, 48 h
HS 578T breast = system: HS 578T breast
HT29 colon = system: HT29 colon
T-47D breast = system: T-47D breast
U251 CNS = system: U251 CNS
SR leukemia = system: SR leukemia
SW-620 colon = system: SW-620 colon
TK-10 renal = system: TK-10 renal
MALME-3M melanoma = system: MALME-3M melanoma
SK-MEL-2 melanoma = system: SK-MEL-2 melanoma
UO-31 renal = system: UO-31 renal
LOX IMVI melanoma = system: LOX IMVI melanoma
A549 NSCLC = system: A549 NSCLC

SMILES	TGI (HS 578T breast)	TGI (HT29 colon)	TGI (T-47D breast)	TGI (U251 CNS)	TGI (SR leukemia)	TGI (SW-620 colon)	TGI (TK-10 renal)	TGI (MALME-3M melanoma)	TGI (SK-MEL-2 melanoma)	TGI (UO-31 renal)	TGI (LOX IMVI melanoma)	TGI (A549 NSCLC)
Brc1ccc(/C(N=N/C(=N\Sc2ccccc2)c2ccc(Br)cc2)=N/Sc2ccccc2)cc1	> 100 µM	> 100 µM	> 100 µM	> 100 µM	> 100 µM	> 100 µM	> 100 µM	> 100 µM	> 100 µM	> 100 µM	> 100 µM	> 100 µM
COC(=O)Cc1c2n(c3ccccc13)C(=O)N1c3ccccc3C(CC(=O)OC)C21 (configuration not stated)	> 100 µM	> 100 µM	> 100 µM	> 100 µM	> 100 µM	> 100 µM	47.7 µM	> 100 µM	> 100 µM	> 100 µM	> 100 µM	> 100 µM
CC1CCc2sc3[nH]c(=S)n(C)c(=O)c3c2C1 (configuration not stated)	> 100 µM	> 100 µM	> 100 µM	> 100 µM	> 100 µM	> 100 µM	> 100 µM	> 100 µM	> 100 µM	33.6 µM	> 100 µM	> 100 µM
Cc1ccc2nc(Nc3ccccc3C)c(Nc3ccccc3C)nc2c1	> 100 µM	> 81.1 µM	> 100 µM	> 70 µM	> 100 µM	> 100 µM	> 92.7 µM	48.8 µM	31.7 µM	60.8 µM	39.5 µM	49.1 µM
O=C(O[C@@H](/C=C/c1ccccc1)P1(=O)N(Cc2ccccc2)[C@@H]2CCCC[C@H]2N1Cc1ccccc1)c1ccccc1	> 100 µM	> 100 µM	3.41 µM	> 100 µM	> 100 µM	> 100 µM	> 100 µM	> 100 µM	5.42 µM	27.4 µM	11.1 µM	> 100 µM
CN(C)CCN1C(=O)N(CCN(C)C)c2c3cc(O)ccc3nc3c([N+](=O)[O-])ccc1c23	45.8 µM	20.1 µM	39.2 µM	24.4 µM	0.807 µM	24.7 µM	33.6 µM	29.6 µM	59.1 µM	33.9 µM	24.3 µM	35.5 µM
